Results taken from paper PMC5711939, “The rumen microbiome: an underexplored resource for novel antimicrobial discovery” (NPJ Biofilms and Microbiomes, 2017).
In brackets after ≈: the same amount, converted by molar mass. Read-outs that look alike come from different tables or passages of the source. Ends that are not written are not given here.

What was measured:
[1] = tested on: E. coli K12; test: MIC, broth microdilution; format: cell-based, Escherichia coli; conditions: strain K12, cation adjusted MHB, 18–24 h
Procedure: (§1) Peptides dissolved in sterile distilled water and comparator antibiotics dissolved in the appropriate solvents[38] were added to sterile U-bottom polypropylene 96-well microplates at desired concentrations.

[2] = tested on: E. coli K12; test: Time kill kinetics; format: cell-based, Escherichia coli
Procedure: Assessment of the bactericidal activity of peptides and comparator antibiotics was performed as previously described[39] using exponential-phase cultures of pathogens grown in MHB ([…]). Peptides were added at concentrations 3 times their MIC values. Experiments were performed in quadruplicates, and CFU/ml was calculated at different time points after over overnight incubation.

[3] = tested on: Ent. faecalis JH2-2; test: microbe, parasite or virus in culture
Procedure: as §1

[4] = tested on: Sal. typhimurium SL1344; test: microbe, parasite or virus in culture
Procedure: as §1

[5] = tested on: List. monocytogenes NCTC 11994; test: microbe, parasite or virus in culture
Procedure: as §1

[6] = tested on: A. baumanii; test: microbe, parasite or virus in culture; conditions: Acinetobacter baumannii, strain Q12-0867; Sensitive; cation adjusted MHB, 18–24 h
Procedure: as §1

[7] = tested on: S. aureus; test: microbe, parasite or virus in culture
Procedure: as §1

[8] = tested on: C. jejuni; test: microbe, parasite or virus in culture
Procedure: as §1

[9] = tested on: K. pneumoniae; test: microbe, parasite or virus in culture
Procedure: as §1

[10] = tested on: P. aeruginosa (CF); test: microbe, parasite or virus in culture; conditions: Pseudomonas aeruginosa, cation adjusted MHB, 18–24 h
Procedure: as §1

[11] = tested on: HUVEC and HepG2 cells; conditions: HUVEC and HepG2 cells (cell line not given)
Procedure: Cytotoxic activity of the identified peptides was determined using HUVEC and HEPG2 cells as described previously.[41],[42] […] Significant responses were defined when observed cell growth was ≤50% and tube length was ≤70% using the proliferation and tube formation assays respectively. Permeabilization of eukaryotic membrane by Lynronne-1, Lynronne-2 and Lynronne-3 was also investigated using HepG2 cells as described previously.[43]

[12] = tested on: S. aureus MRSA ATCC 33591; test: Neutropenic mouse MRSA thigh infection model; format: in vivo, Staphylococcus aureus; conditions: neutropenic male ICR mice; 10 mg/kg IV administered twice; significant (P < 0.001)
Procedure: In the thigh infection model, using neutropenic mice,[25] groups of five male ICR mice weighing 22 ± 2 g were inoculated intramuscularly (IM) with S. aureus MRSA, ATCC 33591 (1.57 × 10^5 CFU/mouse (0.1 ml/thigh)) in the right thigh. Lynronne-1, Lynronne-2 and Lynronne-3 at 10 mg/kg were intravenously (IV) administered once 2 h post infection or twice 2 and 8 h post-infection. The reference substance, vancomycin, was also intravenously injected 2 and 8 h post-infection at 10 and 30 mg/kg. Test animals were sacrificed 26 h after inoculation and the infected thighs were excised and the bacterial burden (CFU/gram) was determined.

[13] = tested on: C. coli
Procedure: as §1

[14] = tested on: E. coli K12; test: SPOT peptide library screen (resazurin fluorescence); format: cell-based, Escherichia coli; design: unit not given here; conditions: 75% reduction of fluorescence vs untreated controls; active IC75≤0.25, semi-active 0.25<IC75≤0.50, inactive IC75>0.5
Description: (§2) The peptides in the created peptide library were synthesized based on the SPOT technique and pure peptides (≥95% purity) were synthesized on resin using solid phase Fmoc peptide chemistry.[16] The 135 peptides in the peptide library were screened for antimicrobial activity using both luminescent (Pseudomonas aeruginosa strain H1001)[34] and non-luminescent (epidemic methicillin resistant S. aureus EMRSA-15, Sal. typhimurium and E. coli K12) bacterial strains. Activity against non-luminescent bacteria strains was assessed by fluorescence readings (excitation/emission spectra of 560/590 nm) after the addition of resazurin dye (100 µm final concentration). The results from the screen were analysed using the MATLAB extension Gait-CAD as previously described.[35] Concentration values with a 75% reduction of luminescence or fluorescence (IC75) in relation to untreated controls were computed.

[15] = tested on: EMRSA-15; test: as above; format: cell-based, Staphylococcus aureus; design: unit not given here; conditions: 75% reduction of fluorescence vs untreated controls; active IC75≤0.25, semi-active 0.25<IC75≤0.50, inactive IC75>0.5
Description: as §2

[16] = tested on: P. aeruginosa H1001; test: SPOT peptide library screen (luminescence); format: cell-based, Pseudomonas aeruginosa; design: unit not given here; conditions: 75% reduction of luminescence vs untreated controls; active IC75≤0.25, semi-active 0.25<IC75≤0.50, inactive IC75>0.5
Description: as §2

[17] = tested on: Sal. typhimurium; test: SPOT peptide library screen (resazurin fluorescence); format: cell-based, Salmonella enterica serovar Typhimurium; design: unit not given here; conditions: 75% reduction of fluorescence vs untreated controls; active IC75≤0.25, semi-active 0.25<IC75≤0.50, inactive IC75>0.5
Description: as §2

[18] = Escherichia coli, read-out: MIC
[19] = Salmonella enterica, TYPHIMURIUM
[20] = Listeria monocytogenes, NCTC11994
[21] = strain RN4220, Sensitive, cation adjusted MHB, 18–24 h

Compound: O=C(O)c1cn(C2CC2)c2cc(N3CCNCC3)c(F)cc2c1=O [Cip, Ciprofloxacin, reference compound]
- MIC [1, 18]: 0.06 µg/mL (≈ 0.181 µM)
- Bactericidal activity (reduction in viable count) ([2]; at 3 h): > 4 log10 CFU/ml
- MIC ([3]; Enterococcus faecalis, JH22): 64 µg/mL (≈ 193 µM)
- MIC [4, 19]: 0.12 µg/mL (≈ 0.362 µM)
- MIC [5, 20]: 64 µg/mL (≈ 193 µM)
- MIC [6]: 0.25 µg/mL (≈ 0.754 µM)
- MIC ([7]; Staphylococcus aureus): > 256 µg/mL
- MIC ([7]; Staphylococcus aureus, ATCC29213, strain ATCC 29213, Sensitive, cation adjusted MHB, 18–24 h): 0.25 µg/mL (≈ 0.754 µM)
- MIC ([7]; Staphylococcus aureus, MRSA, strain EMRSA-15, resistances MRSA, Cip, cation adjusted MHB, 5 × 10^5 CFU/ml, 18–24 h): > 256 µg/mL
- MIC ([7]; Staphylococcus aureus, MRSA, strain Q14-0320, cation adjusted MHB, 18–24 h): 64 µg/mL (≈ 193 µM)
- MIC ([7]; Staphylococcus aureus, MRSA, strain Q14-0325, cation adjusted MHB, 18–24 h): 0.25 µg/mL (≈ 0.754 µM)
- MIC ([7]; Staphylococcus aureus, MRSA, strain Q14-0352, cation adjusted MHB, 18–24 h): 0.5 µg/mL (≈ 1.51 µM)
- MIC ([7]; Staphylococcus aureus, MRSA, strain Q14-0390, cation adjusted MHB, 18–24 h): 64 µg/mL (≈ 193 µM)
- MIC ([7]; Staphylococcus aureus, MRSA|NCTC12493, strain NCTC 12493, MRSA, cation adjusted MHB, 18–24 h): 0.25 µg/mL (≈ 0.754 µM)
- MIC ([8]; Campylobacter jejuni, ATCC33292): 0.12 µg/mL (≈ 0.362 µM)
- MIC ([8]; Campylobacter jejuni, NCTC11161): 0.5 µg/mL (≈ 1.51 µM)
- MIC ([9]; Klebsiella pneumoniae, ATCC700603, strain ATCC 700603, SHV-18, cation adjusted MHB, 18–24 h): 0.25 µg/mL (≈ 0.754 µM)
- MIC ([9]; Klebsiella pneumoniae, NCTC13442, strain NCTC 13442, OXA-48, cation adjusted MHB, 18–24 h): 1 µg/mL (≈ 3.02 µM)
- MIC ([9]; Klebsiella pneumoniae, strain ID not given, Sensitive, cation adjusted MHB, 18–24 h): 0.03 µg/mL (≈ 0.0905 µM)
- MIC ([9]; Klebsiella pneumoniae, strain Q14-0285, VIM, cation adjusted MHB, 18–24 h): 32 µg/mL (≈ 96.6 µM)
- MIC ([10]; ATCC27853, strain ATCC 27853, Sensitive): 0.25 µg/mL (≈ 0.754 µM)
- MIC ([10]; strain PA01): 0.5 µg/mL (≈ 1.51 µM)
- MIC ([10]; strain Q12-0535, Sensitive): 0.06 µg/mL (≈ 0.181 µM)
- MIC ([10]; strain Q12-0581, IMI, MER): 2 µg/mL (≈ 6.04 µM)
- MIC ([10]; strain Q12-0758, CAZ, IMI, MER): 2 µg/mL (≈ 6.04 µM)
- MIC ([10]; strain Q14-0208, CAZ, IMI, MER): 4 µg/mL (≈ 12.1 µM)
- MIC ([10]; strain Q14-0890, CAZ, IMI, MER): 4 µg/mL (≈ 12.1 µM)

Compound: C[C@H]1COc2c(N3CCN(C)CC3)c(F)cc3c(=O)c(C(=O)O)cn1c23 [Lev, Levofloxacin, reference compound]
- MIC ([10]; strain AMT0060): 0.06 µg/mL (≈ 0.166 µM)
- MIC ([10]; strain C3719): < 0.03 µg/mL
- MIC ([10]; strain LESB58): 0.06 µg/mL (≈ 0.166 µM)

Compound: C/C(=C\C(=O)OCCCCCCCCC(=O)O)C[C@@H]1OC[C@H](C[C@@H]2O[C@H]2[C@@H](C)[C@H](C)O)[C@@H](O)[C@H]1O [Mup, Mupirocin, reference compound]
- MIC ([7]; Staphylococcus aureus, BAA1717|MRSA|USA300, strain USA300 BAA-1717, MRSA, cation adjusted MHB, 18–24 h): 0.12 µg/mL (≈ 0.24 µM)

Compound: CN[C@@H]1C[C@H]2O[C@@](C)([C@@H]1OC)n1c3ccccc3c3c4c(c5c6ccccc6n2c5c31)C(=O)NC4 [Staurosporine, reference compound]
- 50% lethal concentration (LC50) [11]: 0.014 µg/mL

Compound: CN[C@H](CC(C)C)C(=O)N[C@H]1C(=O)N[C@@H](CC(N)=O)C(=O)N[C@H]2C(=O)N[C@H]3C(=O)N[C@H](C(=O)N[C@H](C(=O)O)c4cc(O)cc(O)c4-c4cc3ccc4O)[C@H](O)c3ccc(c(Cl)c3)Oc3cc2cc(c3O[C@@H]2O[C@H](CO)[C@@H](O)[C@H](O)[C@H]2O[C@H]2C[C@](C)(N)[C@H](O)[C@H](C)O2)Oc2ccc(cc2Cl)[C@H]1O [Van, Vancomycin, reference compound]
- MIC [1, 18]: 128 µg/mL (≈ 88.3 µM)
- MIC ([3]; Enterococcus faecalis, JH22): 64 µg/mL (≈ 44.2 µM)
- MIC [4, 19]: 256 µg/mL (≈ 177 µM)
- MIC [5, 20]: 64 µg/mL (≈ 44.2 µM)
- MIC ([7]; Staphylococcus aureus): 1 µg/mL (≈ 0.69 µM)
- MIC ([7]; Staphylococcus aureus, ATCC33591 / MRSA): 2 µg/mL (≈ 1.38 µM)
- MIC ([7]; Staphylococcus aureus, BAA1717 / MRSA / USA300): 2 µg/mL (≈ 1.38 µM)
- MIC ([7]; Staphylococcus aureus, MRSA): 2 µg/mL (≈ 1.38 µM)
- Reduction in colony counts [12]: < 2 log

Compound: AWRWKAFRNCWRVRSSSL-NH2 [P8]
- MIC [1]: 64 µg/mL
- MIC [13]: >128 µg/mL
- MIC [3]: 64 µg/mL
- MIC [4]: 32 µg/mL
- MIC ([5]; NCTC 11994): 64 µg/mL
- MIC [7, 21]: 64 µg/mL
- MIC [8]: >128 µg/mL

Compound: GTAWRWHYRARS-NH2 [P15a]
- MIC [13]: 128 µg/mL
- MIC [7]: >128 µg/mL
- MIC [8]: 128 µg/mL
- MIC [9]: >128 µg/mL

Compound: KFVRLKIYCRDKNKGRGISF-NH2 [P15s]
- MIC [1]: 64 µg/mL
- MIC [13]: 128 µg/mL
- MIC [3]: 128 µg/mL
- MIC [4]: 128 µg/mL
- MIC ([5]; NCTC 11994): 128 µg/mL
- MIC [8]: 128 µg/mL

Compound: Polymyxin B
- Bactericidal activity (reduction in viable count) ([2]; at 10 min): > 4 log10 CFU/ml

Compound: QVRWWGRYWRRKWATCR-NH2 [P12]
- MIC [13]: >128 µg/mL
- MIC [3]: 256 µg/mL
- MIC [4]: 256 µg/mL
- MIC ([5]; NCTC 11994): 128 µg/mL
- MIC [8]: >128 µg/mL

Compound: RSITRPVLVRRRWRVRPVF-NH2 [P10]
- MIC [1]: 256 µg/mL
- MIC [13]: >128 µg/mL
- MIC [3]: 512 µg/mL
- MIC [4]: 64 µg/mL
- MIC ([5]; NCTC 11994): 512 µg/mL
- MIC [7]: >128 µg/mL
- MIC [7, 21]: 256 µg/mL
- MIC [8]: >128 µg/mL
- MIC [9]: >128 µg/mL

Compound: SIKILKIYFIQGKRHWSF-NH2 (C-terminus assumed) [P11]
- MIC [13]: >128 µg/mL
- MIC [3]: 256 µg/mL
- MIC [4]: 512 µg/mL
- MIC ([5]; NCTC 11994): 256 µg/mL
- MIC [8]: >128 µg/mL

Compound: TMSLRFWRWKVR-NH2 [P5]
- MIC [1]: 64 µg/mL
- MIC [13]: 128 µg/mL
- MIC [3]: 64 µg/mL
- MIC [4]: 64 µg/mL
- MIC ([5]; NCTC 11994): 64 µg/mL
- MIC [7, 21]: 64 µg/mL
- MIC [8]: 128 µg/mL

Compound: TTAPCKCWIGLRRCFK [P18]
- IC75 values indicating activity classes, E. coli [14]: 0.36
- IC75 values indicating activity classes, EMRSA-15 [15]: 3.77
- IC75 values indicating activity classes, P. aeruginosa H1001 [16]: 1.55
- IC75 values indicating activity classes, Sal. typhimurium [17]: 1.99

Compound: VLHTGYRKFLHRSKRFFHLR-NH2 [P4]
- MIC [1]: 64 µg/mL
- MIC [13]: >128 µg/mL
- MIC [3]: 64 µg/mL
- MIC [4]: 32 µg/mL
- MIC ([5]; NCTC 11994): 64 µg/mL
- MIC [8]: >128 µg/mL
